This is an account of results in patent US6794509B1, “Compounds for fluorescence labeling” (Fuji Photo Film Co., Ltd., priority 1999, dated 2004).

Molecules are shown by their SMILES.

Data set [1] is described as follows: Comparison of relative fluorescence quantum yield (absorption and fluorescence spectra of dye solutions). Particulars: for Absorption maximum (nm) / Fluorescence maximum (nm): ethanol solution of dye; for Fluorescence maximum (nm) / Relative fluorescence quantum yield: absorbance 0.1 at 620 nm; for Fluorescence maximum (nm): spectrum measured at 620 nm; for Relative fluorescence quantum yield: ethanol solution, area of fluorescence spectrum relative to Crystal Violet (Φf=0.54). It is filed as physicochemical. The method, then: Measurement and calculation of relative quantum yield were performed according to the method described in Journal of Chemical Society, Faraday Trans., 92, 4917-4925 (1996). The structures of the conventional cyanine dye used as comparative dyes are shown below.
(2) Fluorescence spectrum was measured at an […] wavelength of 620 nm.
(3) Area value of fluorescence spectrum was calculated.
(4) Relative value was calculated based on the area value of Crystal Violet of which absolute fluorescence quantum yield was known (Φf=0.54).

For data set [2] the following is noted: known value of the standard; cited from earlier work.

On to `CC(CCN1C=C(C#Cc2ccc(N(CCCS(=O)(=O)[O-])S(C)(=O)=O)cc2)C=C2C1=N/C(=C\C=C\C1=Nc3c(cc(C#Cc4ccc(N(CCCCCC(=O)O)S(C)(=O)=O)cc4)c[n+]3CCC(C)S(=O)(=O)[O-])C1(C)C)C2(C)C)S(=O)(=O)[O-].[K+].[K+]` (stereo not shown) [Compound I-13], for which, in data set [1], the “Absorption maximum (nm)” value was determined as 651 nm, the “Fluorescence maximum (nm)” value is listed as 672 nm and the “Relative fluorescence quantum yield” value is 0.63.

In the case of `CC1(C)C2=CC(C#Cc3cccc(N(CCCS(=O)(=O)[O-])S(C)(=O)=O)c3)=CN(CCCCCC(=O)O)C2=N/C1=C\C=C\C1=Nc2c(cc(C#Cc3cccc(N(CCCS(=O)(=O)[O-])S(C)(=O)=O)c3)c[n+]2CCCS(=O)(=O)[O-])C1(C)C.[K+].[K+]` [Compound I-12], in data set [1], the “Absorption maximum (nm)” value was found to be 650 nm, the “Fluorescence maximum (nm)” value was found to be 671 nm and the “Relative fluorescence quantum yield” value is given as 0.62.

Take `CN(C)c1ccc(C(=C2C=CC(=[N+](C)C)C=C2)c2ccc(N(C)C)cc2)cc1` [Crystal Violet]: the “absolute fluorescence quantum yield (Φf)” value in data set [2] is 0.54.

In the case of `CC[N+]1=C(/C=C/C=C/C=C2/N(CCCCCC(=O)O)c3ccc(S(=O)(=O)[O-])cc3C2(C)C)C(C)(C)c2cc(S(=O)(=O)[O-])ccc21.[K+]` [compound 2, reference compound], in data set [1], the “Absorption maximum (nm)” value is given as 645 nm, the “Fluorescence maximum (nm)” value is given as 664 nm and the “Relative fluorescence quantum yield” value came out at 0.27.

Consider `CC(CC[n+]1cc(C#Cc2ccc(N(CCCS(=O)(=O)[O-])S(C)(=O)=O)cc2)cc2c1N=C(/C=C/C=C1\N=C3C(=CC(C#Cc4ccc(N(CCCS(=O)(=O)[O-])S(C)(=O)=O)cc4)=CN3CCCCCC(=O)O)C1(C)C)C2(C)C)S(=O)(=O)[O-].[K+].[K+]` (stereo not shown) [Compound I-11], for which, in data set [1], the “Absorption maximum (nm)” value is 651 nm, the “Fluorescence maximum (nm)” value is 672 nm and the “Relative fluorescence quantum yield” value came out at 0.63.
